Reference: the supplement of paper PMC11997997

Experiments:
[1] = tested on: murine bone marrow-derived macrophages; test: area under cytotoxicity dose-response curve (AUC (% cytotoxicity x dose, relative)); higher = more cytotoxic; settings: duration: 6 days; dose range: 0.13-80 uM, 8 points
Summary of the method: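 Cytotoxicity is expressed as the area under the dose–response curve from GraphPad Prism version 10. To obtain it, primary murine bone marrow-derived macrophages were incubated for 6 days at 37 °C in 5% CO2 across final concentrations of 80–0.13 μM. Viability came from CellTiter-Glo luminescence, and percent cytotoxicity was normalised to vehicle and positive control wells.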

[2] = tested on: Mycobacterium tuberculosis CDC1551 (intracellular, in murine BMDM); test: area under intracellular growth-inhibition dose-response curve (AUC (% inhibition x dose, relative)); higher = more potent; settings: duration: 6 days; dose range: 0.13-80 uM, 8 points
Summary of the method: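 In 384-well opaque plates, primary murine bone marrow-derived macrophages were infected with luciferase-expressing M. tuberculosis CDC1551 (multiplicity of infection 1, 1 h) 24 h after seeding, then treated for 6 days across final concentrations of 80–0.13 μM. Growth was measured by Bright-Glo luciferin assay, normalised to a reference drug control and the lowest-concentration wells. The reported value is the area under the growth-inhibition dose–response curve from GraphPad Prism.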

Structure (SMILES) | area under cytotoxicity dose-response curve [1] | area under intracellular growth-inhibition dose-response curve [2]
Cl.c1ccc(CN2CCC3(CCCc4ccccc43)CC2)cc1 | 45.5 | 160
Cc1cc(Cl)ccc1OCCCC(=O)NNC(=O)c1ccncc1 | < 0 | 271
Cc1[nH]c2ccccc2c1C(=O)C(C)OC(=O)c1ccc([N+](=O)[O-])o1 (centres undefined) | < 0 | 3.96
CCOc1ccc(-n2cc(-c3ccc(OC)c(OC)c3)nc2S)cc1 | 81.6 | 210
CC(=NNC(=O)c1ccncc1)c1cccc(Br)c1 | < 0 | 234
CCC(=O)N1CCN(c2ccc(NC(=O)c3ccc([N+](=O)[O-])o3)cc2Cl)CC1 | 30.3 | 58.5
FC(F)(F)c1nnc2ccc(Cl)nn12 | 62.7 | 36.2
CCOC1OC(O)=C(Cl)/C1=N\c1ccccc1C (centres undefined) | < 0 | 231
O=C(CSc1ccccc1)NNC(=O)c1ccncc1 | 18.7 | 219
CCCCCCCn1c(=O)c(C(=O)Nc2cnccn2)c(O)c2ccccc21 | 7.68 | 66
CCc1cccc2sc(N3CCN(C(=O)c4ccc([N+](=O)[O-])o4)CC3)nc12 | 85.8 | 71.9
Cc1ccc(C(=O)NC2CCCCC2)cc1 | 43.3 | 228
CCOC(=O)c1c(-c2ccccc2)nc2cc(C)ccn12 | 1.58 | 147
O=C(COC(=O)Cc1cccs1)NCC(=O)Nc1ccc(F)cc1 | 45.1 | < 0
CCC(=O)NC(=S)Nc1ccc(NC(=S)NC(=O)c2ccc(C)cc2)cc1 | 11.9 | 265
COc1ccc(/C(C)=N/NC(=O)c2ccncc2)cc1 | 151 | 229
O=C1N(c2nncs2)CCN1[N+](=O)[O-] | < 0 | 97.8
O=C(/C=C/c1cccs1)NCc1cccs1 | 34.6 | 240
CSc1ncccc1C(=O)OCC(=O)c1ccc[nH]1 | < 0 | 159
O=C(/C=C/c1ccccc1Cl)NCc1ccco1 | 79.7 | 174
CCCCNC(=O)/C=C/c1cccs1 | 7.87 | 191

Structure (SMILES) | area under cytotoxicity dose-response curve [1] | area under intracellular growth-inhibition dose-response curve [2]
C=C1c2cccc(O)c2C(=O)C2C(=O)[C@]3(O)C(=O)C(C(N)=O)C(=O)[C@@H](N(C)C)[C@@H]3[C@@H](O)[C@H]12.Cl (some centres undefined) | 3.53 | 272
CCCN(CCC)CC(O)Cn1cc(/C=C/C(=O)c2cccs2)c2ccccc21 (centres undefined) | 2.01 | 231
C/C(=N\NC(=O)c1ccncc1)c1cccc(NC(=O)c2ccc(C(C)(C)C)cc2)c1 | 47.8 | 264
O=C(NCC(c1cccs1)N1CCOCC1)c1cc([N+](=O)[O-])cc([N+](=O)[O-])c1 (centres undefined) | 20.1 | 276
NC(=S)N/N=C/C=C/c1ccccc1 | 82.2 | 243
O=C(NCc1ccccc1)c1ccc(Br)o1 | 19.6 | 267
Cn1c(=O)n(C)c2cc(/C=N/NC(N)=S)ccc21 | < 0 | 262
CCO.C[C@H]1c2cccc(O)c2C(=O)C2=C(O)[C@]3(O)C(O)=C(C(N)=O)C(=O)[C@@H](N(C)C)C3[C@@H](O)C21.Cl.O (some centres undefined) | 81.3 | 242
O=C(NCc1ccc(F)cc1)c1ccc(Br)o1 | 42.3 | 228
CNc1nc(N2CCc3ccccc32)ncc1F | < 0 | 140
COc1ccc(N2C(C)=CC(=Cc3sc4ccccc4[n+]3C)C=C2C)cc1.[I-] | 87.2 | < 0
Cc1cc(C)n(CC(=O)NC2C(=O)N3C(C(=O)O)=C(CSc4nnc(C)s4)CSC23)n1 (centres undefined) | 11.2 | 122
C=C1C(=O)O[C@@H]2C[C@@H](C)[C@@H]3C=CC(=O)[C@@]3(C)[C@@H](OC(=O)CC(=O)O[C@H]3[C@@H]4C(=C)C(=O)O[C@@H]4C[C@@H](C)[C@@H]4C=CC(=O)[C@]43C)[C@H]12 | 35 | 87.6
O=C(NCC1CC1(Cl)Cl)Nc1ccc(Cl)c(Cl)c1 (centres undefined) | 111 | 239
C/C(CC(=O)Nc1cccc(F)c1)=N\NC(=O)c1ccncc1 | 9.96 | 272
C[C@@H](CN1CCC[C@H]1CN1C(N)=NC[C@@H]1Cc1ccccc1)N1C[C@@H](Cc2ccccc2)N(CCCC2CCCC2)C1=N | 22.1 | 98
O=C(Nc1ccc(Br)cc1)NC1CCCCCCC1 | 26.1 | 263
O=C(CSc1cccc[n+]1[O-])Nc1ccccc1Oc1ccccc1 | 53.2 | 39.4
CCOc1ccc(/C=N/NC(N)=S)cc1 | 28.9 | 270
CCC(=O)NC(=S)Nc1ccc(NC(=O)c2ccco2)cc1 | 64.5 | 233
CC1CCC(NC(=O)c2cc3c(s2)CCCC3)CC1 (centres undefined) | < 0 | 253

Structure (SMILES) | area under cytotoxicity dose-response curve [1] | area under intracellular growth-inhibition dose-response curve [2]
On1c(-c2ccc(Cl)cc2)nc2ccccc21 | 124 | 63.1
CCN1CCN(c2cc3c(cc2F)c(=O)c(C(=O)O)cn3C2CC2)CC1 | 7.13 | 258
O=C(/C=C/c1cccs1)N1CCCCC1 | < 0 | 243
CCOc1cc(/C=N\Nc2nc(-c3ccc(C)cc3)c(NC(C)=O)s2)ccc1O | < 0 | 256
CCCCN(C(=O)c1ccco1)c1c(N)n(CCC)c(=O)[nH]c1=O | 53.6 | < 0
O=C(COC(=O)Cc1ccc(Cl)cc1)NCc1cccs1 | 18.4 | 37.1
Cc1ccc(C(=O)OCC(=O)Nc2ccccc2)cc1S(=O)(=O)N1CCCCC1 | < 0 | 94.3
CCC(CO)NCCNC(CC)CO (centres undefined) | 88.1 | 154
O=C(/C=C/c1cn(CC(O)CN2CCCCCC2)c2ccccc12)c1cccs1 (centres undefined) | < 0 | 96.5
CC[C@@H](C)[C@@H]1CN([C@@H](C)CN2CCC[C@H]2CN2C(N)=NC[C@@H]2Cc2ccccc2)C(=N)N1CCc1ccc(Cl)c(Cl)c1 | < 0 | 167
O=C(c1cccc(C(F)(F)F)c1)N1CCCC1 | < 0 | 232
CCOC(=O)c1c(NC(=O)CN2C(=O)N(C)C3(CCCCC3)C2=O)sc(C(=O)N(C)C)c1C | 38.6 | 65
Sc1[nH]cnc2ncnc1-2 | < 0 | 88.6
CCOc1ncccc1C(=O)Nc1cc2c(cc1Br)OCCO2 | 24.1 | 132
O=C(NCCc1ccccc1)c1ccc(Br)o1 | 46.2 | 193
CC(=O)c1cc(NC(=O)c2ccc(C)cc2)c(=O)oc1/C=C/N(C)C | 37.1 | 115
O=C(Nc1ccc2c(c1)OCCO2)NC12CC3CC(CC(C3)C1)C2 | 22.8 | 136
O=C(c1ccc([N+](=O)[O-])o1)N1CCN(Cc2ccccc2)CC1 | 4.42 | 151
CCc1ccc(C(=O)/C=C/c2ccc([N+](=O)[O-])o2)cc1 | 5.66 | 142
C[C@@H]1C2CC(C/C2=N\NC(=O)c2ccncc2)C1(C)C (some centres undefined) | < 0 | 260
